From patent US11965039B2, “Compstatin analogues and their medical uses” (priority 2018, dated 2024)
Starred links: 1 amine or outer side, 2 acyl side, 3 side chain; linkers in the order of their positions; H or OH if unused. Positions of bridges follow the written chain, without caps; N, C: chain ends. Non-standard residues stand in square brackets, D forms with d. Residues, ends and D or L forms follow the SMILES beside them. Groups on a side chain read outwards from the residue. *: point of attachment. Trp(1-Me) = Cn1cc(C[C@H](N)C(=O)O)c2ccccc21; C18 diacid = O=C(O)CCCCCCCCCCCCCCCCC(=O)*; γGlu = O=C(O)[C@H](CCC(=O)[*:2])N[*:1]; AEEA = NCCOCCOCC(=O)O; Aoc = NCCCCCCCC(=O)O; Sar = CNCC(=O)O

tested on: classical complement pathway; assay: In vitro haemolysis assay (inhibition of classical complement pathway); assay type: cell-based, human; details: human serum, sensitized sheep red blood cells; Table 3, cells printed in μM; read-out: IC50, inhibition of hemolysis
Summary of the method: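 Compound dilutions preincubated 15 min at room temperature with diluted human serum (titrated per batch for 70-90% maximal haemolysis), then antibody-sensitized sheep RBC (10^7/well) added for 30 min at 37 °C in Tris/casein buffer, pH 7.4. Stopped with EDTA; haemolysis read at 405 nm; IC50 by 4PL fit.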

| SMILES | IC50 |
| --- | --- |
| CC[C@H](C)[C@H](N)C(=O)N[C@H]1CSSC[C@@H](C(=O)N[C@H](C(N)=O)[C@@H](C)O)NC(=O)[C@H](CCCN=C(N)N)NC(=O)[C@H](Cc2cnc[nH]2)NC(=O)[C@H](Cc2cnc[nH]2)NC(=O)CNC(=O)[C@H](Cc2c[nH]c3ccccc23)NC(=O)[C@H](CC(=O)O)NC(=O)[C@H](CCC(N)=O)NC(=O)[C@H](C(C)C)NC(=O)[C@H](C(C)C)NC1=O [Compstatin] | > 5 µM |

same assay, conditions: human serum, sensitized sheep red blood cells; Table 3, given as upper bounds; read-out: IC50, inhibition of hemolysis

| SMILES | IC50 |
| --- | --- |
| CC[C@H](C)[C@@H]1NC(=O)[C@@H](NC(=O)[C@H](Cc2ccccc2)NC(=O)[C@H](CCC(=O)O)NC(=O)[C@H](CO)NC(C)=O)CSSC[C@@H](C(=O)N[C@H](C(=O)N[C@@H](CCC(=O)O)C(=O)NCC(=O)N[C@@H](CCC(=O)O)C(=O)NCCCCCCCC(=O)N[C@@H](CCC(=O)O)C(=O)N[C@@H](CCCCNC(=O)CC[C@H](NC(=O)CNC(=O)CC[C@H](NC(=O)CCCCCCCCCCCCCCCCC(=O)O)C(=O)O)C(=O)O)C(N)=O)[C@@H](C)O)NC(=O)[C@H](CCCNC(=N)N)NC(=O)[C@H](Cc2c[nH]cn2)NC(=O)[C@H](CCC(=O)O)NC(=O)CNC(=O)[C@H](Cc2c[nH]c3ccccc23)NC(=O)[C@H](CC(=O)O)NC(=O)[C@H](CCC(N)=O)NC(=O)[C@H](Cc2cn(C)c3ccccc23)NC1=O [Compound 137] (Ac-SEFCI[Trp(1-Me)]QDWGEHRCTEGE[Aoc]EK([γGlu-Gly-γGlu-C18 diacid])-NH2; disulfide 4-14) | < 0.1 µM |
| CC[C@H](C)[C@@H]1NC(=O)[C@@H](NC(=O)[C@H](Cc2ccccc2)NC(=O)[C@H](CCC(=O)O)NC(=O)[C@H](CO)NC(C)=O)CSSC[C@@H](C(=O)N(C)CC(=O)N[C@@H](CCC(=O)O)C(=O)NCC(=O)N[C@@H](CCC(=O)O)C(=O)NCCOCCOCC(=O)N[C@@H](CCCCNC(=O)CC[C@H](NC(=O)CNC(=O)CC[C@H](NC(=O)CCCCCCCCCCCCCCCCC(=O)O)C(=O)O)C(=O)O)C(N)=O)NC(=O)[C@H](CCCNC(=N)N)NC(=O)[C@H](Cc2c[nH]cn2)NC(=O)[C@H](CCC(=O)O)NC(=O)CNC(=O)[C@H](Cc2c[nH]c3ccccc23)NC(=O)[C@H](CC(=O)O)NC(=O)[C@H](CCC(N)=O)NC(=O)[C@H](Cc2cn(C)c3ccccc23)NC1=O [Compound 138] (Ac-SEFCI[Trp(1-Me)]QDWGEHRC[Sar]EGE[AEEA]K([γGlu-Gly-γGlu-C18 diacid])-NH2; disulfide 4-14) | < 0.1 µM |
| CC[C@H](C)[C@@H]1NC(=O)[C@@H](NC(=O)[C@H](Cc2ccccc2)NC(=O)[C@H](CCC(=O)O)NC(=O)[C@H](CO)NC(C)=O)CSSC[C@@H](C(=O)N(C)CC(=O)N[C@@H](CCC(=O)O)C(=O)NCC(=O)N[C@@H](CCC(=O)O)C(=O)N[C@@H](CO)C(=O)N[C@@H](CCC(=O)O)C(=O)N[C@@H](CO)C(=O)N[C@@H](CCCCNC(=O)CC[C@H](NC(=O)CNC(=O)CC[C@H](NC(=O)CCCCCCCCCCCCCCCCC(=O)O)C(=O)O)C(=O)O)C(N)=O)NC(=O)[C@H](CCCNC(=N)N)NC(=O)[C@H](Cc2c[nH]cn2)NC(=O)[C@H](CCC(=O)O)NC(=O)CNC(=O)[C@H](Cc2c[nH]c3ccccc23)NC(=O)[C@H](CC(=O)O)NC(=O)[C@H](CCC(N)=O)NC(=O)[C@H](Cc2cn(C)c3ccccc23)NC1=O [Compound 139] (Ac-SEFCI[Trp(1-Me)]QDWGEHRC[Sar]EGESESK([γGlu-Gly-γGlu-C18 diacid])-NH2; disulfide 4-14) | < 0.1 µM |
| CC[C@H](C)[C@@H]1NC(=O)[C@@H](NC(=O)[C@H](Cc2ccccc2)NC(=O)[C@H](CCC(=O)O)NC(=O)[C@H](CO)NC(C)=O)CSSC[C@@H](C(=O)N(C)CC(=O)N[C@@H](CCC(=O)O)C(=O)NCC(=O)N[C@@H](CCC(=O)O)C(=O)NCCOCCOCC(=O)N[C@@H](CCC(=O)O)C(=O)N[C@@H](CO)C(=O)N[C@@H](CCCCNC(=O)CC[C@H](NC(=O)CNC(=O)CC[C@H](NC(=O)CCCCCCCCCCCCCCCCC(=O)O)C(=O)O)C(=O)O)C(N)=O)NC(=O)[C@H](CCCNC(=N)N)NC(=O)[C@H](Cc2c[nH]cn2)NC(=O)[C@H](CCC(=O)O)NC(=O)CNC(=O)[C@H](Cc2c[nH]c3ccccc23)NC(=O)[C@H](CC(=O)O)NC(=O)[C@H](CCC(N)=O)NC(=O)[C@H](Cc2cn(C)c3ccccc23)NC1=O [Compound 140] (Ac-SEFCI[Trp(1-Me)]QDWGEHRC[Sar]EGE[AEEA]ESK([γGlu-Gly-γGlu-C18 diacid])-NH2; disulfide 4-14) | < 0.1 µM |
| CC[C@H](C)[C@@H]1NC(=O)[C@@H](NC(=O)[C@H](Cc2ccccc2)NC(=O)[C@H](CCC(=O)O)NC(=O)[C@H](CO)NC(C)=O)CSSC[C@@H](C(=O)N(C)CC(=O)N[C@@H](CCC(=O)O)C(=O)NCC(=O)N[C@@H](CCC(=O)O)C(=O)N[C@@H](CO)C(=O)N[C@@H](CCC(=O)O)C(=O)N[C@@H](CO)C(=O)N[C@@H](CCCCNC(=O)CC[C@H](NC(=O)CCCCCCCCCCCCCCCCC(=O)O)C(=O)O)C(N)=O)NC(=O)[C@H](CCCNC(=N)N)NC(=O)[C@H](Cc2c[nH]cn2)NC(=O)[C@H](CCC(=O)O)NC(=O)CNC(=O)[C@H](Cc2c[nH]c3ccccc23)NC(=O)[C@H](CC(=O)O)NC(=O)[C@H](CCC(N)=O)NC(=O)[C@H](Cc2cn(C)c3ccccc23)NC1=O [Compound 141] (Ac-SEFCI[Trp(1-Me)]QDWGEHRC[Sar]EGESESK([γGlu-C18 diacid])-NH2; disulfide 4-14) | < 0.1 µM |
| CC[C@H](C)[C@@H]1NC(=O)[C@@H](NC(=O)[C@H](Cc2ccccc2)NC(=O)[C@H](CCC(=O)O)NC(=O)[C@H](CO)NC(C)=O)CSSC[C@@H](C(=O)N[C@H](C(=O)N[C@@H](CCC(=O)O)C(=O)NCC(=O)N[C@@H](CCC(=O)O)C(=O)NCCOCCOCC(=O)N[C@@H](CCC(=O)O)C(=O)N[C@@H](CO)C(=O)N[C@@H](CCCCNC(=O)CC[C@H](NC(=O)CCCCCCCCCCCCCCCCC(=O)O)C(=O)O)C(N)=O)[C@@H](C)O)NC(=O)[C@H](CCCNC(=N)N)NC(=O)[C@H](Cc2c[nH]cn2)NC(=O)[C@H](CCC(=O)O)NC(=O)CNC(=O)[C@H](Cc2c[nH]c3ccccc23)NC(=O)[C@H](CC(=O)O)NC(=O)[C@H](CCC(N)=O)NC(=O)[C@H](Cc2cn(C)c3ccccc23)NC1=O [Compound 142] (Ac-SEFCI[Trp(1-Me)]QDWGEHRCTEGE[AEEA]ESK([γGlu-C18 diacid])-NH2; disulfide 4-14) | < 0.1 µM |
| CC[C@H](C)[C@@H]1NC(=O)[C@@H](NC(=O)[C@H](Cc2ccccc2)NC(=O)[C@H](CCC(=O)O)NC(=O)[C@H](CO)NC(C)=O)CSSC[C@@H](C(=O)N(C)CC(=O)N[C@@H](CCC(=O)O)C(=O)NCC(=O)N[C@@H](CCC(=O)O)C(=O)NCCOCCOCC(=O)NCCOCCOCC(=O)NCCOCCOCC(=O)N[C@@H](CCCCNC(=O)CC[C@H](NC(=O)CNC(=O)CC[C@H](NC(=O)CCCCCCCCCCCCCCCCC(=O)O)C(=O)O)C(=O)O)C(N)=O)NC(=O)[C@H](CCCNC(=N)N)NC(=O)[C@H](Cc2c[nH]cn2)NC(=O)[C@H](CCC(=O)O)NC(=O)CNC(=O)[C@H](Cc2c[nH]c3ccccc23)NC(=O)[C@H](CC(=O)O)NC(=O)[C@H](CCC(N)=O)NC(=O)[C@H](Cc2cn(C)c3ccccc23)NC1=O [Compound 143] (Ac-SEFCI[Trp(1-Me)]QDWGEHRC[Sar]EGE[AEEA][AEEA][AEEA]K([γGlu-Gly-γGlu-C18 diacid])-NH2; disulfide 4-14) | < 0.1 µM |
| CC[C@H](C)[C@@H]1NC(=O)[C@@H](NC(=O)[C@H](Cc2ccccc2)NC(=O)[C@H](CCC(=O)O)NC(=O)[C@H](CO)NC(C)=O)CSSC[C@@H](C(=O)N(C)CC(=O)N[C@@H](CCC(=O)O)C(=O)NCCOCCOCC(=O)NCCOCCOCC(=O)N[C@@H](CCCCNC(=O)CC[C@H](NC(=O)CNC(=O)CC[C@H](NC(=O)CCCCCCCCCCCCCCCCC(=O)O)C(=O)O)C(=O)O)C(N)=O)NC(=O)[C@H](CCCNC(=N)N)NC(=O)[C@H](Cc2c[nH]cn2)NC(=O)[C@H](CCC(=O)O)NC(=O)CN(C)C(=O)[C@H](Cc2c[nH]c3ccccc23)NC(=O)[C@H](CC(=O)O)NC(=O)[C@H](CCC(N)=O)NC(=O)[C@H](Cc2cn(C)c3ccccc23)NC1=O [Compound 144, Ac-SEFC(1)I[1-Me-Trp]QDW[Sar]EHRC(1)[Sar]E[Peg3][Peg3]-K([17-carboxy-heptadecanoyl][γGlu]G[γGlu])-NH2] (Ac-SEFCI[Trp(1-Me)]QDW[Sar]EHRC[Sar]E[AEEA][AEEA]K([γGlu-Gly-γGlu-C18 diacid])-NH2; disulfide 4-14) | < 0.1 µM |
| CC[C@H](C)[C@@H]1NC(=O)[C@@H](NC(=O)[C@H](Cc2ccccc2)NC(=O)[C@H](CCC(=O)O)NC(C)=O)CSSC[C@@H](C(=O)N(C)CC(=O)N[C@@H](CCC(=O)O)C(=O)N[C@@H](C)C(=O)NCCOCCOCC(=O)NCCOCCOCC(=O)N[C@@H](CCCCNC(=O)CC[C@H](NC(=O)CNC(=O)CC[C@H](NC(=O)CCCCCCCCCCCCCCCCC(=O)O)C(=O)O)C(=O)O)C(N)=O)NC(=O)[C@H](CCCNC(=N)N)NC(=O)[C@H](Cc2c[nH]cn2)NC(=O)[C@H](CCC(=O)O)NC(=O)CNC(=O)[C@H](Cc2c[nH]c3ccccc23)NC(=O)[C@H](CC(=O)O)NC(=O)[C@H](CCC(N)=O)NC(=O)[C@H](Cc2cn(C)c3ccccc23)NC1=O [Compound 145] (Ac-EFCI[Trp(1-Me)]QDWGEHRC[Sar]EA[AEEA][AEEA]K([γGlu-Gly-γGlu-C18 diacid])-NH2; disulfide 3-13) | < 0.1 µM |

same assay, conditions: human serum, sensitized sheep red blood cells; Table 4, valine 3 vs isoleucine 3 pairs; read-out: CP hemolysis IC50

| SMILES | IC50 |
| --- | --- |
| CC[C@H](C)[C@H](NC(C)=O)C(=O)N[C@H]1CSSC[C@@H](C(=O)N[C@H](C(=O)NCC(=O)N[C@@H](C)C(=O)N[C@@H](CCC(=O)O)C(=O)N[C@@H](CO)C(N)=O)[C@@H](C)O)NC(=O)[C@H](CCCNC(=N)N)NC(=O)[C@H](Cc2c[nH]cn2)NC(=O)[C@H](CCC(=O)O)NC(=O)CNC(=O)[C@H](Cc2c[nH]c3ccccc23)NC(=O)[C@H](CC(=O)O)NC(=O)[C@H](CCC(N)=O)NC(=O)[C@H](Cc2c[nH]c3ccccc23)NC(=O)[C@H](C(C)C)NC1=O [D, reference compound] (Ac-ICVWQDWGEHRCTGAES-NH2; disulfide 2-12) | 0.21 µM |
| CC[C@H](C)[C@H](NC(C)=O)C(=O)N[C@H]1CSSC[C@@H](C(=O)N[C@H](C(N)=O)[C@@H](C)O)NC(=O)[C@H](CO)NC(=O)[C@H](Cc2c[nH]cn2)NC(=O)[C@H](C)NC(=O)CNC(=O)[C@H](Cc2c[nH]c3ccccc23)NC(=O)[C@H](CC(=O)O)NC(=O)[C@H](CCC(N)=O)NC(=O)[C@H](Cc2c[nH]c3ccccc23)NC(=O)[C@H](C(C)C)NC1=O [E, reference compound] (Ac-ICVWQDWGAHSCT-NH2; disulfide 2-12) | > 1 µM |
